The target of the test is T1, Siglec-7 (Homo sapiens, UniProt Q9Y286).
T1 construct: gene SIGLEC7; recombinant Siglec-7-Fc soluble protein
The test is described as follows: concentration-independent native mass spectrometry (COIN-CaR-ESI-MS). The test is classed as binding.

T1 sequence (Q9Y286 19-353 limits assumed): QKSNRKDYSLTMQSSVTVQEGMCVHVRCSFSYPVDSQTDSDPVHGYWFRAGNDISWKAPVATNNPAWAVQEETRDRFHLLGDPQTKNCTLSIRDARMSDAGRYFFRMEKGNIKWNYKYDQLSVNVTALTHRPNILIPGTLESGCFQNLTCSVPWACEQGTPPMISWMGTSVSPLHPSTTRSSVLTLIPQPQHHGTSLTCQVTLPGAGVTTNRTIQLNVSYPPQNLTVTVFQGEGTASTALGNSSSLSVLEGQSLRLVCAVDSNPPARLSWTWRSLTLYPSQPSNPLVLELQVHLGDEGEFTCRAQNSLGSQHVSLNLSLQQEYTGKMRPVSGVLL

`CC(=O)N[C@H]1[C@@H](OCCNC(=O)OCc2ccccc2)O[C@H](CO)[C@H](O)[C@@H]1O[C@@H]1O[C@H](CO)[C@H](O)[C@H](O[C@]2(C(=O)O)C[C@H](N=[N+]=[N-])[C@@H](NC(C)=O)[C@H]([C@H](O)[C@H](O)CO)O2)[C@H]1O` [compound 13, 2-(N-benzyloxycarbonylamino)ethyl 5-acetamido-4-azido-3,4,5 trideoxy-D-glycero-α-D-galacto-nonulopyranosyl-(2–3)-[β-D-galactopyranosyl]-(1–3)-2 acetamido-2-deoxy-α-D-galactopyranoside] gave a Kd of 115 ± 44 µM. With `CC(=O)N[C@H]1[C@@H](OCCNC(=O)OCc2ccccc2)O[C@H](CO)[C@H](O)[C@@H]1O[C@@H]1O[C@H](CO)[C@H](O)[C@H](O[C@]2(C(=O)O)C[C@H](O)[C@@H](NC(C)=O)[C@H]([C@H](O)[C@H](O)CO)O2)[C@H]1O` [compound 14, 2-(N-benzyloxycarbonylamino)ethyl 5 acetamido-3,5-dideoxy-D-glycero-α-D-galacto-nonulopyranosyl-(2–3)-[(β-D-galactopyranosyl)]-(1–3)-2-acetamido-2-deoxy-α-D-galactopyranoside], the Kd amounted to 88 ± 31 µM.

The record behind these values is PMC12038855, “Synthesis of 4-azido sialic acid for testing against Siglec-7 and in metabolic oligosaccharide engineering” (RSC Chemical Biology, 2025).
